Here are results for 16 compounds from ChEMBL document CHEMBL1201862, “PubChem BioAssay data set” (2004).

Each structure is given as a SMILES string. Activity calls are given as the source filed them.

The test system of one experiment is HeLa. The experiment can be described thus: viability loss in HeLa cells – cell-based, ATP luminescence, cherry-pick samples, cytotoxicity control, dose response (AID 687004). To be noted: Homo sapiens. The format is functional.
Experiment [1] can be described thus: viability loss in HeLa cells – cytotoxicity control for MgcRacGAP inhibitor project, dose response (AID 624300). The format is functional.
For experiment [2], the target named is T1, Rac GTPase-activating protein 1 (Homo sapiens, UniProt Q9H0H5).
T1 sequence (Q9H0H5 whole entry): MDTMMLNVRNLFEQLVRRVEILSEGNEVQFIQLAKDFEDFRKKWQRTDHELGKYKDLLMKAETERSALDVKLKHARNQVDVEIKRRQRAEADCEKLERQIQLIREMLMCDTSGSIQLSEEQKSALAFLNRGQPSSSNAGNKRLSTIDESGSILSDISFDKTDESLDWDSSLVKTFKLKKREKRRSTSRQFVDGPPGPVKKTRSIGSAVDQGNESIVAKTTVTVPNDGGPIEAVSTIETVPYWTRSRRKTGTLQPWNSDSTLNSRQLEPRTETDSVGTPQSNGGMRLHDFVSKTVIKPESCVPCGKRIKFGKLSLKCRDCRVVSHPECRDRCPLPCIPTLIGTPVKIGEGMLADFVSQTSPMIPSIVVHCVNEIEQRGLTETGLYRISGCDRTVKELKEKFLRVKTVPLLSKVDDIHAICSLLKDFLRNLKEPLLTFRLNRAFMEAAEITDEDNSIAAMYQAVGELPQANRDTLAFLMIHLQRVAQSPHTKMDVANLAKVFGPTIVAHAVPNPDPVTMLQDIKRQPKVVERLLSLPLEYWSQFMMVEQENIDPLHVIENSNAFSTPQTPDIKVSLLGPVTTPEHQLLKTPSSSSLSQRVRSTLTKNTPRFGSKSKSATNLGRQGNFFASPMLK
The experiment can be described thus: blockers of MgcRacGAP-driven Rac1 GTP hydrolysis – biochemical, ADP Hunter fluorescence, primary and confirmatory, confirmation (AID 624330). The format is functional.

For a further experiment, the target named is Beta-galactosidase (Escherichia coli, UniProt Q8VNN2). The experiment can be described thus: Dose response counterscreen for EBI2 assay utilizing the enzyme, b-galactosidase. The format is functional. For orientation: Counterscreens check selectivity or assay interference.
For a further experiment, the target named is Major prion protein (Homo sapiens, UniProt P04156). Type of experiment: functional, cell-based.
Experiment [3] is described as follows: cells.
The test system of experiment [4] is Streptococcus sp. 'group A'. The experiment can be described thus: Streptococcus pyogenes SK(-)GAS viability under kanamycin – luminescence, BacTiterGlo, confirmation, counter-screen for streptokinase expression inhibitor project, dose response (AID 1900). Type of experiment: functional, organism-based.
The test system of a further experiment is Streptococcus. The experiment can be described thus: GAS UMAA2166 growth inhibition – luminescence, BacTiterGlo, counter-screen for streptokinase expression inhibitor project, dose response (AID 1915).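 Also: potency for reduction of bacterial viability or growth.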 The format is functional, organism-based.
Experiment [5] is described as follows: HGIII-sPLA2 enzyme inhibition potency – biochemical, QFRET, IC50, dose response (AID 743457).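 Also: green fluorescence rise as the enzyme cleaves BODIPY PC-A2 in liposomes.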
Experiment [6] can be described thus: cells. Type of experiment: functional, cell-based.
The target in experiment [7] is T2, Trace amine-associated receptor 1 (Homo sapiens, UniProt Q96RJ0).
T2 sequence (Q96RJ0 whole entry): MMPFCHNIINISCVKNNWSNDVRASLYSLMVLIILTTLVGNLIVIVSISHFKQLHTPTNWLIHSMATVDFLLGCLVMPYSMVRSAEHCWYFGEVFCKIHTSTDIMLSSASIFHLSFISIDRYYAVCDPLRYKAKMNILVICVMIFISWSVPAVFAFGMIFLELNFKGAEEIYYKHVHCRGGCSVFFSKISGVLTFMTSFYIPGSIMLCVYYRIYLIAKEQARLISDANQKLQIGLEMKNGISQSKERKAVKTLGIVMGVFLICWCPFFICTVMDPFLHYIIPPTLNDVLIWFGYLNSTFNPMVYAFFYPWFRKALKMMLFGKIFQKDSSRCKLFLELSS
The experiment can be described thus: Fluorescence-based cell-based high throughput dose response assay to identify agonists of the human trace amine associated receptor 1 (TAAR1). The format is functional.

Experiment [8] has as its target T2, Trace amine-associated receptor 1. The experiment can be described thus: Counterscreen for agonists of the human trace amine associated receptor 1 (hTAAR1): Fluorescence-based cell-based high throughput dose response assay to identify hTAAR1 agonist that also desensitize TAAR1 receptor response. Type of experiment: functional.
A short description of experiment [9]: cells. Type of experiment: functional, cell-based. The source holds these as a separate data set.
Experiment [10] addresses Mitogen-activated protein kinase 10 (Homo sapiens, UniProt P53779). The experiment can be described thus: Dose response biochemical screening assay for inhibitors of c-Jun N-Terminal Kinase 3 (JNK3). [Related pubchem assays: 746 ].
A short description of experiment [11]: Trypanosoma cruzi growth suppression in host cells – NIH3T3 host cells, beta-gal luminescence, confirmation (AID 2044).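 Also: intracellular parasites grown in NIH/3T3 mouse fibroblasts as host cells; luminescent beta-galactosidase reporter signal from transgenic T. cruzi replicating inside host cells; inhibitors lower the luminescence signal.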 The format is functional, cell-based.
Experiment [12] in a line: NIH3T3 cell viability loss – ATP luminescence, mouse fibroblasts, counter-screen, dose response (AID 2010).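 Also: cells exposed to compound for about 90 hours before reading.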 Type of experiment: functional, cell-based.
The target in experiment [13] is T3, Corticotropin-releasing factor receptor 2/Corticotropin-releasing factor-binding protein (Homo sapiens, UniProt P24387+Q13324).
T3 sequence (Q13324 whole entry): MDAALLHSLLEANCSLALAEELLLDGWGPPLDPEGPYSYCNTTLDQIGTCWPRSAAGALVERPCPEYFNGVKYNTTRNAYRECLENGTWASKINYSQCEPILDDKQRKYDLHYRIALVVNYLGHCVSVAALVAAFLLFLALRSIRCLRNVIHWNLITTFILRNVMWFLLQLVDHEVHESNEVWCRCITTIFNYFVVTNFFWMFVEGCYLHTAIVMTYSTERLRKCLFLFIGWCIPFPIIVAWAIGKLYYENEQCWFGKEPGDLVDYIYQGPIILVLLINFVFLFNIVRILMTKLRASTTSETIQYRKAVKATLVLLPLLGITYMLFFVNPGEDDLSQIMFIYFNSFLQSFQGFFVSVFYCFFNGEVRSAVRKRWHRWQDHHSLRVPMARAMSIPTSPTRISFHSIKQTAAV
T3 sequence (P24387 whole entry): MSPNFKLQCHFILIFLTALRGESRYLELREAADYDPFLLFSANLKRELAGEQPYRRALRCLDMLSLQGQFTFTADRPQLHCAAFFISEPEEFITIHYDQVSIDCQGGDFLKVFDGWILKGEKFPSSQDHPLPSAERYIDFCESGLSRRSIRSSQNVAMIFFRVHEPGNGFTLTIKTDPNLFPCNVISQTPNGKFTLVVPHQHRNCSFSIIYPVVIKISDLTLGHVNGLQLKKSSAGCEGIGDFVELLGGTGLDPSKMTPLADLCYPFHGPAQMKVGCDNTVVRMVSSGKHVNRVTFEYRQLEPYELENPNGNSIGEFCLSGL
The experiment can be described thus: Dose Response confirmation of uHTS hits for small molecule antagonists of the CRF-binding protein and CRF-R2 receptor complex. The conditions noted are these: read-out: IC50_Mean. The format is functional.

The target in experiment [14] is T3, Corticotropin-releasing factor receptor 2/Corticotropin-releasing factor-binding protein. The experiment can be described thus: activators of CRF receptor 2 with binding protein – uHTS hits, confirmation (AID 602473). The format is functional. The conditions noted are these: read-out: EC50_Mean.
Experiment [15] addresses DNA repair protein RAD52 homolog (Homo sapiens, UniProt P43351). The format is functional, biochemical.
Experiment [16] in a line: mouse fibroblast viability loss – cell-based, cherry-pick samples, set 2, cytotoxicity control for T. cruzi growth inhibitor project, dose response (AID 651817). To be noted: NIH3T3. The format is functional.
Experiment [17] is described as follows: intracellular Trypanosoma cruzi inhibitors in host cells – cell-based, plate reader, cherry-pick samples, set 3, dose response (AID 651818).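 Also: compounds incubated with infected cells for about four days.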 Type of experiment: functional.
Experiment [18] can be described thus: viability loss in HepG2 hepatoma cells – cell-based, ATP luminescence, cherry-pick, activator set 2, cytotoxicity control, dose response (AID 1053143). The format is functional.
For another experiment, the target named is Cytochrome P450 2D6 (Homo sapiens, UniProt P10635).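 Also: CYP2D6 member of a cytochrome P450 panel assay.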

Take `Cc1ccc2cc(NC(=O)c3ccccc3)ccc2n1`: the AC50 with HeLa was > 52 µM (inactive).
With `CC1CC(=O)N(c2ccc(NCCc3ccc(O)cc3)c([N+](=O)[O-])c2)C1=O` (stereo not given), the CC50 in [1] was 100 µM (active). In addition, the IC50 in experiment [2] was 52.9 µM (active).
On to `COc1ccc(-c2cn(-c3ccc(OC)cc3)c(S)n2)cc1`, for which the IC50 on Beta-galactosidase is > 80 µM (inactive).
For the compound `Cn1c(N2CCC(C(N)=O)CC2)nc2c1c(=O)n(Cc1cccc(Br)c1)c(=O)n2C`, the figures for the IC50 at Major prion protein and in “cells [3]” were 8.38 µM (active) and > 138 µM (inactive), respectively.
As to `COc1ccc(/C=C/C(=O)NC(=S)NNC(=O)c2ccco2)cc1`, the EC50 in experiment [4] is 1.72 µM (active); in the experiment with Streptococcus, 3.29 µM (active). In addition, the IC50 in experiment [5] is 34.9 µM (inactive).
Regarding `CC1(C)CC(=O)C(C(=O)/C=C/NCCc2ccccc2)C(=O)C1`, the values for the IC50 (in the experiment “cells [6]”; in experiment [8]) were > 29.9 µM (inactive) and 7.8 µM (active), respectively. Besides, the figures for the EC50 (in experiment [7]; in “cells [9]”) were 1.46 µM (active) and > 29.9 µM (inactive), respectively.
On to `COC(=O)c1sccc1NC(=O)C1CC=CCC1C(=O)O` (stereo not given), for which the figures for the IC50 (in experiment [10]; on Major prion protein; in “cells [3]”) were 19.8 µM (not active), 2.48 µM (active) and > 138 µM (inactive), respectively.
Consider `Cc1ccc(S(=O)(=O)N2CCN(C(=O)COc3ccc(Br)cc3)CC2)cc1`, for which the IC50 on Beta-galactosidase is > 80 µM (inactive).
For `Fc1ccc(-n2c(S)nnc2-c2ccc3c(c2)OCO3)cc1Cl`, in [5], the IC50 is > 122 µM (inactive).
Take `COCc1cc([S+]([O-])c2ccc(Cl)cc2)nc(C)n1` (stereo not given): the EC50 is 1.78 µM (active) in experiment [11] and > 60 µM (not active) in experiment [12]. For the same compound, the CC50 in experiment [1] is 95 µM (active). For the same compound, in [2], the IC50 is 87.8 µM (active).
For the compound `Cc1ccc(-c2c[n+](CC(=O)Nc3nc(-c4ccc(F)cc4)cs3)c3n2CCC3)cc1`, the IC50 in experiment [13] was > 47.1 µM (inactive). Moreover, the EC50 in [14] was > 53 µM (inactive). In addition, in experiment [15], the AC50 was 11.2 µM (active).
As for `C[C@H](CO)N1C[C@H](C)[C@@H](CN(C)Cc2ccccc2)Oc2c(NC(=O)c3ccncc3)cccc2C1=O`, the AC50 in experiment [16] was 39 µM (inactive); in experiment [17], 0.179 µM (active).
Turning to `C[C@H](CO)N1C[C@H](C)[C@H](CN(C)S(=O)(=O)c2ccc(Cl)cc2)Oc2c(NC(=O)c3nc4ccccc4s3)cccc2C1=O`, in experiment [16], the AC50 was 21.9 µM (active).
Turning to `CO[C@H]1CN(C)C(=O)c2cc(NS(=O)(=O)CC(F)(F)F)ccc2OC[C@@H](C)N(Cc2cccnc2)C[C@@H]1C`, the AC50 in the experiment with HeLa was 21.5 µM (active).
Take `Cc1ccc2c(c1)-c1nc3ccccc3cc1/C2=N/C1CCCCC1`: the AC50 in experiment [18] was 22.2 µM (active).
For `c1ccc2cc(CC3=NCCN3)ccc2c1`, the IC50 in “cells [6]” was > 30 µM (inactive); in experiment [8], 3.65 µM (active). Besides, the results for the EC50 (in experiment [7]; in the experiment “cells [9]”) were 0.322 µM (active) and > 30 µM (inactive), respectively. Also, the AC50 at Cytochrome P450 2D6 was 39.8 µM (inconclusive).

The term AC50 denotes the midpoint of the concentration-response curve, whichever way the signal moves. The CC50 is the concentration at which the toxic effect on the cells reaches its halfway point.
